This note sets out measurements from patent US4560693A, “[1,3]-Dioxolo[4,5-f]benzimidazoles and [1,4]-dioxino[2,3-f]benzimidazoles” (Byk Gulden Lomberg Chemische Fabrik GmbH, priority 1983, dated 1985).

Structures are written as SMILES.

One assay relates to gastric secretion (HCl). Put plainly: Inhibition of gastric secretion (HCl) in the Shay rat over 4 h. To be noted: rats; for ED25 / ED50: Rattus norvegicus, po, perorally; for ED25: dose reducing HCl secretion (4 h) by 25% vs control; for ED50: dose reducing HCl secretion (4 h) by 50% vs control; for Gastric secretion: % inhibition of HCl secretion: after administration of the antiulcerous ED50, 4 h. In kind it is in vivo. How it is done:
(§1) In these experiments, the compounds according to the invention were compared with prior art compounds (A-D) of UK Patent Application GB No. 2 082 580. The compounds investigated are numbered as follows:
(§2) The influence of the compounds according to the invention on gastric lesion formation induced by pyloric ligature (4 h; so-called Shay rat) and oral administration of 100 mg/kg of acetylsalicylic acid, and the gastric secretion (HCl) in the course of 4 h in rats is shown in the following table.
(§3) *ED25 und ED50 = dose which reduces the lesion index or the HCl secretion
(§4) (4h) in the rat stomach by 25 and, respectively, 50% in the treated group
(§5) in comparison with the control group.
**after administration of the antiulcerous ED50.
(§6) Ulcers are caused in rats which have been fasted for 24 hours (female, 180-200 g, 4 animals per cage on a high grid) by pyloric ligature (under diethyl ether anesthesia) and oral administration of 100 mg/10 ml/kg of acetylsalicylic acid. The substances to be tested are administered orally (10 ml/kg) one hour before the pyloric ligature. The wound is closed by means of Michel clamps. 4 hours thereafter, the animals are sacrificed under ether anesthesia by Atlas dislocation and resection of the stomach. The stomach is opened longitudinally and attached to a cork plate, after the amount of gastric juice secreted (volume) and later its HCl content (titration with sodium hydroxide solution) have first been determined; the number and size (=diameter) of the ulcers present are determined under a stereomicroscope at 10-fold magnification. The product of the degree of severity (according to the following points scale) and number of ulcers serves as the individual lesion index.
(§7) The reduction in the average lesion index of each treated group compared with the control group (=100%) serves as a measure of the antiulcerogenic effect.

Assay [1] has as its system gastric lesion formation (rat stomach). Put plainly: Antiulcerogenic action / protective effect on the stomach (modified Shay rat: pyloric ligature plus oral acetylsalicylic acid). In kind it is in vivo. The conditions noted are these: rats, perorally, 1 h before pyloric ligature, 100 mg/kg acetylsalicylic acid orally, dose reducing lesion index by 50% vs control, 4 h, read-out: Protective effect on the stomach: Inhibition of the lesion index, ED50. Here is the method: as §1, §2, §3, §4, §5
The antiulcerogenic action was tested by the so-called Shay rat method:
as §6
Ulcer diameter 0.1-1.4 mm: 1
as §7

Consider `COc1ccnc(C[S+]([O-])c2nc3cc4c(cc3[nH]2)OC(F)(F)O4)c1` (stereo not drawn) [Serial No. 1, 2,2-Difluoro-6-[(4-methoxy-2-pyridyl)methylsulfinyl]-5H--[1,3]-dioxolo[4,5-f]benzimidazole], for which, in the assay on gastric secretion (HCl), the ED25 was determined as 0.6 mg/kg, the ED50 stood at 0.9 mg/kg and the “Gastric secretion: % inhibition of HCl secretion” value (“Gastric secretion: % inhibition” below) came to 25%. Besides, the ED50 in assay [1] came to 0.6 mg/kg.
Turning to `COc1ccnc(C[S+]([O-])c2nc3cc4c(cc3[nH]2)OC(F)(F)O4)c1C` (stereo not drawn) [Serial No. 2, 2,2-difluoro-6-[(4-methoxy-3-methyl-2-pyridyl)methylsulfinyl]-5H-[1,3]-dioxolo-[4,5-f]benzimidazole], in the assay on gastric secretion (HCl), the ED25 was below 0.3 mg/kg, the ED50 turned out to be 0.6 mg/kg and the “Gastric secretion: % inhibition” value is recorded as 30%. For the same molecule, the ED50 in assay [1] is 0.4 mg/kg.
For `COc1ccnc(C[S+]([O-])c2nc3cc4c(cc3[nH]2)OC(F)C(F)(F)O4)c1` (stereo not drawn) [Serial No. 3, 6,6,7-Trifluoro-6,7-dihydro-2-[(4-methoxy-2-pyridyl)methylsulfinyl]-1H-[1,4]-dioxino[2,3-f]benzimidazole], in the assay with gastric secretion (HCl), the ED25 is 0.5 mg/kg, the ED50 came out at 1.4 mg/kg and the “Gastric secretion: % inhibition” value is listed as 23%. In addition, in assay [1], the ED50 is 0.45 mg/kg.
For the molecule `COc1ccnc(CSc2nc3cc4c(cc3[nH]2)OC(F)(F)C(F)O4)c1` (stereo not drawn) [Serial No. 4, 6,6,7-Trifluoro-6,7-dihydro-2-[(4-methoxy-2-pyridyl)-methylthio]-1H--[1,4]-dioxino[2,3-f]benzimidazole], in the assay with gastric secretion (HCl), the ED25 was 1 mg/kg, it took a dose of 1.7 mg/kg to reach the 50% effect level (ED50) and the “Gastric secretion: % inhibition” value is 25%. For the same molecule, in assay [1], the ED50 worked out at 0.6 mg/kg.
For `COc1ccnc(C[S+]([O-])c2nc3cc4c(cc3[nH]2)OC(F)C(F)(F)O4)c1C` (stereo not drawn) [Serial No. 5, 6,6,7-trifluoro-6,7-dihydro-2-[(4-methoxy-3-methyl-2-pyridyl)methylsulfinyl]-1H-[1,4]-dioxino[2,3-f]benzimidazole] the same measures were below 0.3 mg/kg, 0.6 mg/kg, 35% and 0.35 mg/kg.
Regarding `COc1ccnc(CSc2nc3cc4c(cc3[nH]2)OC(F)C(F)(F)O4)c1C` (stereo not drawn) [Serial No. 6, 6,6,7-trifluoro-6,7-dihydro-2-[(4-methoxy-3-methyl-2-pyridyl)methylthio]-1H-[1,4]-dioxino[2,3-f]benzimidazole], in the assay on gastric secretion (HCl), the ED25 was determined as 0.7 mg/kg, the ED50 came to 1.4 mg/kg and the “Gastric secretion: % inhibition” value was 20%. In addition, the ED50 in assay [1] came out at 0.6 mg/kg.
For `COc1ccnc(CSc2nc3cc4c(cc3[nH]2)OC(F)(F)O4)c1C` [Serial No. 7, 2,2-difluoro-6-[(4-methoxy-3-methyl-2-pyridyl)methylthio]-5H-[1,3]-dioxolo[4,5-f]benzimidazole], in the assay on gastric secretion (HCl), the ED25 was determined as 0.6 mg/kg, the ED50 was above 1 mg/kg and the “Gastric secretion: % inhibition” value stood at 25%. Also, the ED50 in assay [1] was found to be 0.6 mg/kg.
As for `COc1cc(C[S+]([O-])c2nc3cc4c(cc3[nH]2)OC(F)(F)O4)ncc1C` (stereo not drawn) [Serial No. 8, 2,2-difluoro-6-[(4-methoxy-5-methyl-2-pyridyl)methylsulfinyl]-5H-[1,3]-dioxolo[4,5-f]benzimidazole], in the assay on gastric secretion (HCl), the ED25 amounted to 1 mg/kg, the ED50 is 2.5 mg/kg and the “Gastric secretion: % inhibition” value is listed as 17%. Besides, the ED50 in assay [1] amounted to 0.5 mg/kg.
For `COc1c(C)cnc(C[S+]([O-])c2nc3cc4c(cc3[nH]2)OC(F)C(F)(F)O4)c1C` (stereo not drawn) [Serial No. 9, 6,6,7-trifluoro-6,7-dihydro-2-[(4-methoxy-3,5-dimethyl-2-pyridyl)methylsulfinyl]-1H-[1,4]-dioxino[2,3-f]benzimidazole] the same measures were 0.7 mg/kg, 1 mg/kg, 15% and 0.5 mg/kg.
In the case of `COc1ccnc(C[S+]([O-])c2nc3cc4c(cc3[nH]2)OC(F)(F)C(F)(Cl)O4)c1C` (stereo not drawn) [Serial No. 10, 6-Chloro-6,7,7-trifluoro-6,7-dihydro-2-[(4-methoxy-3-methyl-2-pyridyl)methylsulfinyl]-1H-[1,4]-dioxino[2,3-f]benzimidazole], in the assay with gastric secretion (HCl), the ED25 came to 0.4 mg/kg, the 50% effect level (ED50) was put at a dose of 0.7 mg/kg and the “Gastric secretion: % inhibition” value is 25%. The ED50 in assay [1] was 0.4 mg/kg.
The molecule `COc1ccnc(CSc2nc3cc4c(cc3[nH]2)OCO4)c1` [Serial No. A, 6-[(4-Methoxy-2-pyridyl)methylthio]-5H--[1,3]-dioxolo-[4,5-f]benzimidazole, reference compound] had an ED25 in the assay on gastric secretion (HCl) above 10 mg/kg. The ED50 in assay [1] was above 10 mg/kg.
As to `COc1ccnc(C[S+]([O-])c2nc3cc4c(cc3[nH]2)OCO4)c1` (stereo not drawn) [Serial No. B, 6-[(4-Methoxy-2-pyridyl)methylsulffinyl]-5H--[1,3]-dioxolo-[4,5-f]benzimidazole, reference compound], the ED50 in assay [1] is around 5 mg/kg.
For `COc1ccnc(CSc2nc3cc4c(cc3[nH]2)OCCO4)c1` [Serial No. C, 6,7-Dihydro-2-[(4-methoxy-2-pyridyl)methylthio]-1H--[1,4]-dioxino[2,3-f]benzimidazole, reference compound], in the assay with gastric secretion (HCl), the ED25 was above 30 mg/kg, the ED50 is above 30 mg/kg and the “Gastric secretion: % inhibition” value is 19%. For the same molecule, the ED50 in assay [1] worked out at 30 mg/kg.
With `COc1ccnc(C[S+]([O-])c2nc3cc4c(cc3[nH]2)OCCO4)c1` (stereo not drawn) [Serial No. D, 6,7-Dihydro-2-[(4-methoxy-2-pyridyl)methylsulfinyl]-1H--[1,4]-dioxino[2,3-f]benzimidazole, reference compound], in the assay with gastric secretion (HCl), the ED25 was above 30 mg/kg, the ED50 is above 30 mg/kg and the “Gastric secretion: % inhibition” value is on record as 0%. In addition, in assay [1], the ED50 came out at 30 mg/kg.

For orientation: ED50 means the dose at which the effect has come halfway, by size or by number of responders.
